ChEMBL document CHEMBL4052702 (Bioorg Med Chem Lett, 2017)

Experiments:
Histone deacetylase 1 [1] = target: T1, Histone deacetylase 1 (Homo sapiens, UniProt Q13547); assay: Inhibition of HDAC1 (unknown origin) assessed as remaining enzyme activity at 4 x 10^-6 M by ELISA-based assay
Histone deacetylase 2 [2] = target: T2, Histone deacetylase 2 (Homo sapiens, UniProt Q92769); assay: Inhibition of HDAC2 (unknown origin) by ELISA-based assay
[3] = target: T3, Protein deacetylase HDAC6 (Homo sapiens) (UniProt Q9UBN7); assay: Inhibition of HDAC6 (unknown origin) assessed as remaining enzyme activity at 5 x 10^-8 M by ELISA-based assay
T3 sequence (whole entry): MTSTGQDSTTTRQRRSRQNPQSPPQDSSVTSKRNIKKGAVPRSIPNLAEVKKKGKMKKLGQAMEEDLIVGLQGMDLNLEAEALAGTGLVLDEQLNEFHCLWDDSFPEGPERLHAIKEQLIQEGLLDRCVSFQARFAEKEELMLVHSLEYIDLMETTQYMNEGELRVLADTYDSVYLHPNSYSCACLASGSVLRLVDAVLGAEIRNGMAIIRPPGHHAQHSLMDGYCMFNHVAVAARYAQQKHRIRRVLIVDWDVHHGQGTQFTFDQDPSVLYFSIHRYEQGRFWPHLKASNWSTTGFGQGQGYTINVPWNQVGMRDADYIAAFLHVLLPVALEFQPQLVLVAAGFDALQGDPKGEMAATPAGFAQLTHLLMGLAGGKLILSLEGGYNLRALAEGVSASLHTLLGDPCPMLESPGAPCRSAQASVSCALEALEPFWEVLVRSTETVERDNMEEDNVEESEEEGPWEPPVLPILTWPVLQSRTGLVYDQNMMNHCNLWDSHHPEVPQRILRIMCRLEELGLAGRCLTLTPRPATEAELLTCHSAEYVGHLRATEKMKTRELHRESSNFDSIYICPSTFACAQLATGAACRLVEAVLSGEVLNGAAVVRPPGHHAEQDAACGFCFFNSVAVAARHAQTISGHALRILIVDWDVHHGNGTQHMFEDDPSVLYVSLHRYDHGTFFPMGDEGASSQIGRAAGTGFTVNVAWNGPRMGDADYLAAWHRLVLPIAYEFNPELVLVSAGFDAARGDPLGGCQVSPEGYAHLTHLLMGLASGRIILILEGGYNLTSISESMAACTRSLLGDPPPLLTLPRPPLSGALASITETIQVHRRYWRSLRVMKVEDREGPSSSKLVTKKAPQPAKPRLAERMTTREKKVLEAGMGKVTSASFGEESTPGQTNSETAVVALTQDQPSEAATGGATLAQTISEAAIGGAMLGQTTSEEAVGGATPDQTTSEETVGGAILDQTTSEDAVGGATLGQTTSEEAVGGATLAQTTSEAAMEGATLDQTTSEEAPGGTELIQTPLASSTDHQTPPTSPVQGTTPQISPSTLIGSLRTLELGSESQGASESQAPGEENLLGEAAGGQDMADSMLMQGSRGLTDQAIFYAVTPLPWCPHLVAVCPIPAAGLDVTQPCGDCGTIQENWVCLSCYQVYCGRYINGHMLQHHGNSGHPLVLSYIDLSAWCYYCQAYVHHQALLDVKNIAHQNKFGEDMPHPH

[4] = target: T4, Histone deacetylase 8 (Homo sapiens) (UniProt Q9BY41); assay: Inhibition of HDAC8 (unknown origin) assessed as remaining enzyme activity at 1.6 x 10^-6 M by ELISA-based assay
T4 sequence (whole entry): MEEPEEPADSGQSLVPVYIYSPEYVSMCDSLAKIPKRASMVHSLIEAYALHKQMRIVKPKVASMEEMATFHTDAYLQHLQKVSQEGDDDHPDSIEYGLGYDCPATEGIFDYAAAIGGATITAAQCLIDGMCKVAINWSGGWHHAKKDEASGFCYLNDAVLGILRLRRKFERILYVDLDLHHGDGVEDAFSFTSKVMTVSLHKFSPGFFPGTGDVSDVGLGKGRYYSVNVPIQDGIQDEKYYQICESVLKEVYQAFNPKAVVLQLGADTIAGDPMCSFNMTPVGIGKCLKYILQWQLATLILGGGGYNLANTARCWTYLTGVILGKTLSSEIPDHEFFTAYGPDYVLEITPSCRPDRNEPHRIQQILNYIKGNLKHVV

Jurkat [5] = assay: cells; format: functional; settings: Homo sapiens, 44 h
[6] = target: T3, Protein deacetylase HDAC6 (Homo sapiens); assay: Inhibition of HDAC6 (unknown origin) assessed as remaining enzyme activity at 4 x 10^-7 M by ELISA-based assay
Histone deacetylase 1 [7] = target: T1, Histone deacetylase 1; assay: Inhibition of HDAC1 (unknown origin) assessed as remaining enzyme activity at 2 x 10^-6 M by ELISA-based assay
[8] = target: T5, Protein deacetylase HDAC6 (Homo sapiens, UniProt Q9UBN7); assay: Inhibition of HDAC6 (unknown origin) by ELISA-based assay
T5 sequence (Q9UBN7 whole entry): T3 sequence (whole entry)

[9] = target: T3, Protein deacetylase HDAC6 (Homo sapiens); assay: Inhibition of HDAC6 (unknown origin) assessed as remaining enzyme activity at 1 x 10^-7 M by ELISA-based assay
Histone deacetylase 2 [10] = target: T2, Histone deacetylase 2; assay: Inhibition of HDAC2 (unknown origin) assessed as remaining enzyme activity at 2 x 10^-6 M by ELISA-based assay
Histone deacetylase 1 [11] = target: T1, Histone deacetylase 1; assay: Inhibition of HDAC1 (unknown origin) by ELISA-based assay
Histone deacetylase 3 [12] = target: T6, Histone deacetylase 3 (Homo sapiens, UniProt O15379); assay: Inhibition of HDAC3 (unknown origin) assessed as remaining enzyme activity at 2 x 10^-6 M by ELISA-based assay
[13] = Inhibition of HDAC in human HeLa-S3 cells lysates pre-incubated for 15 mins before HDAC-Glo I/II substrate addition and measured after 30 mins post substrate addition; format: cell-based
[14] = target: T4, Histone deacetylase 8 (Homo sapiens); assay: Inhibition of HDAC8 (unknown origin) assessed as remaining enzyme activity at 2 x 10^-7 M by ELISA-based assay
[15] = target: T4, Histone deacetylase 8 (Homo sapiens); assay: Inhibition of HDAC8 (unknown origin) assessed as remaining enzyme activity at 1 x 10^-7 M by ELISA-based assay
[16] = target: T3, Protein deacetylase HDAC6 (Homo sapiens); assay: Inhibition of HDAC6 (unknown origin) assessed as remaining enzyme activity at 8 x 10^-7 M by ELISA-based assay
Jurkat [17] = assay: cells; format: functional; settings: Homo sapiens, 44 h; remark: listed apart in the source
[18] = target: T4, Histone deacetylase 8 (Homo sapiens); assay: Inhibition of HDAC8 (unknown origin) assessed as remaining enzyme activity at 4 x 10^-7 M by ELISA-based assay
[19] = target: T4, Histone deacetylase 8 (Homo sapiens); assay: Inhibition of HDAC8 (unknown origin) assessed as remaining enzyme activity at 8 x 10^-7 M by ELISA-based assay
Histone deacetylase 1 [20] = target: T1, Histone deacetylase 1; assay: Inhibition of HDAC1 (unknown origin) assessed as remaining enzyme activity at 5 x 10^-7 M by ELISA-based assay
Histone deacetylase 8 = target: T7, Histone deacetylase 8 (Homo sapiens, UniProt Q9BY41); assay: Inhibition of HDAC8 (unknown origin) by ELISA-based assay
T7 sequence (Q9BY41 whole entry): T4 sequence (whole entry)

Histone deacetylase 3 [21] = target: T6, Histone deacetylase 3; assay: Inhibition of HDAC3 (unknown origin) by ELISA-based assay
Histone deacetylase 3 [22] = target: T6, Histone deacetylase 3; assay: Inhibition of HDAC3 (unknown origin) assessed as remaining enzyme activity at 4 x 10^-6 M by ELISA-based assay

T6 sequence (O15379 whole entry): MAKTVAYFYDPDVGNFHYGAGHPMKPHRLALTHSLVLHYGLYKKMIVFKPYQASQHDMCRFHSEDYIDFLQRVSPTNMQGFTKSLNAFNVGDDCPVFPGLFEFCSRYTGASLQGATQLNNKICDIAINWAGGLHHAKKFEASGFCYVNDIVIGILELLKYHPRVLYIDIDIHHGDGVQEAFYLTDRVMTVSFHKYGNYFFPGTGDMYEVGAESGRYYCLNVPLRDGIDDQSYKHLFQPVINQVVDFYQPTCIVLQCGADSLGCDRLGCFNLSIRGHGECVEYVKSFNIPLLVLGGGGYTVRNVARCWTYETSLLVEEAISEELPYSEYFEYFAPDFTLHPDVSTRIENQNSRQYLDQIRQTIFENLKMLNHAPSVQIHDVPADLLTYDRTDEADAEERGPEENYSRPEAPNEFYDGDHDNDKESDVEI
T1 sequence (Q13547 whole entry): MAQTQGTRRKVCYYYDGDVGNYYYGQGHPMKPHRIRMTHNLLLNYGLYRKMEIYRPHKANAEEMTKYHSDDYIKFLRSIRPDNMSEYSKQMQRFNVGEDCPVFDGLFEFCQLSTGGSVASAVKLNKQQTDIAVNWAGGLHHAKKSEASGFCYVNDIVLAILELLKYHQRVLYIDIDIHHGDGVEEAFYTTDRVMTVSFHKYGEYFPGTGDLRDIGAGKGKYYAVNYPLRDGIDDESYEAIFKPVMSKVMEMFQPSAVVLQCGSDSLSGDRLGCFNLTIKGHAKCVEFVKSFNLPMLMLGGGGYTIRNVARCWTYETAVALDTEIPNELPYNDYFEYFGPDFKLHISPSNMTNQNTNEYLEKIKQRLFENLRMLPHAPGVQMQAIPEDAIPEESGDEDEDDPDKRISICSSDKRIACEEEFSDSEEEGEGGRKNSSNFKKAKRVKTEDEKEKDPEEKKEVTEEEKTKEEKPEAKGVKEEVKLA
T2 sequence (Q92769 whole entry): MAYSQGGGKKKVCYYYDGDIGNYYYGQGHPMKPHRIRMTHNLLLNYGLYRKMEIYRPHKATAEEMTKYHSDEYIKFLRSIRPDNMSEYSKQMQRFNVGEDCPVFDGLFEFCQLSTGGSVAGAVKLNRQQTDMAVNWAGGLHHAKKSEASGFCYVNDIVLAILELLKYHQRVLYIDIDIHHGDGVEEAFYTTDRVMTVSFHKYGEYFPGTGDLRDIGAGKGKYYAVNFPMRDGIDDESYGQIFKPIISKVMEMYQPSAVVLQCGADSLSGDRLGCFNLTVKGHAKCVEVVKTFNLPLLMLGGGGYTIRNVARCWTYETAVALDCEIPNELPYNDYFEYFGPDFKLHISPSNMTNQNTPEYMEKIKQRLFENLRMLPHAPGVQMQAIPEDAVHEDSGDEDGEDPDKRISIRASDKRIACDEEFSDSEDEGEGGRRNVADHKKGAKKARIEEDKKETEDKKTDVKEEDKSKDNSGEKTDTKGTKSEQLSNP

Structure (SMILES) | Activity (Histone deacetylase 1 [1]) [%] | IC50 (Histone deacetylase 2 [2]) [nM] | Activity [3] [%] | Activity [4] [%] | viability at 10 µM (Jurkat [5]) [%] | Activity [6] [%] | Activity (Histone deacetylase 1 [7]) [%] | IC50 [8] [nM] | Activity [9] [%] | Activity (Histone deacetylase 2 [10]) [%] | IC50 (Histone deacetylase 1 [11]) [nM] | Activity (Histone deacetylase 3 [12]) [%] | IC50 [13] [nM] | Activity [14] [%] | Activity [15] [%] | Activity [16] [%] | viability at 1 µM (Jurkat [17]) [%] | Activity [18] [%] | Activity [19] [%] | Activity (Histone deacetylase 1 [20]) [%] | other results
CCCCC(CCCC(=O)NO)CCC(=O)Nc1ccccc1 (centres undefined) | 18 | 1300 | 90 | 22 | 39 | 48 | 37 | 320 | 70 | 38 | 1100 | 44 | 5000 | 69 | 83 | 28 | 67 | 50 | 35 | 68 | IC50 (Histone deacetylase 8): 430 nM; IC50 (Histone deacetylase 3 [21]): 1600 nM; Activity (Histone deacetylase 3 [22]): 27%
CCCCCCC(CCCC(=O)NO)CCC(=O)Nc1ccccc1 (centres undefined) | 37 | 2500 | 82 | 21 | 24 | 54 | 54 | 410 | 69 | 57 | 2100 | 67 | 6500 | 70 | 78 | 34 | 101 | 51 | 35 | 77 | IC50 (Histone deacetylase 8): 420 nM; IC50 (Histone deacetylase 3 [21]): 2900 nM; Activity (Histone deacetylase 3 [22]): 39%
O=C(CCCC(CCC(=O)Nc1ccccc1)Cc1ccccc1)NO (centres undefined) | 45 | 3500 | 83 | 19 | 50 | 43 | 54 | 270 | 76 | 62 | 2900 | 85 | 6200 | 65 | 82 | 26 | 71 | 47 | 33 | 84 | IC50 (Histone deacetylase 8): 380 nM; IC50 (Histone deacetylase 3 [21]): 5800 nM; Activity (Histone deacetylase 3 [22]): 53%
